Assay results as given in patent publication US9446039B2, “Aminoheteroaryl compounds as MTH1 inhibitors” (CEMM—FORSCHUNGSZENTRUM FÜR MOLEKULARE MEDIZIN GMBH, priority 2012, dated 2016).

What was measured:
Type in all cases: binding
[1] = target: SW480 colon carcinoma cells lysate proteins (Homo sapiens, UniProt O75874); conditions: PreyGene IDH1
[2] = target: T1, SW480 colon carcinoma cells lysate proteins (Homo sapiens, UniProt Q9Y383); conditions: PreyGene LUC7L2
T1 sequence (Q9Y383 1-392): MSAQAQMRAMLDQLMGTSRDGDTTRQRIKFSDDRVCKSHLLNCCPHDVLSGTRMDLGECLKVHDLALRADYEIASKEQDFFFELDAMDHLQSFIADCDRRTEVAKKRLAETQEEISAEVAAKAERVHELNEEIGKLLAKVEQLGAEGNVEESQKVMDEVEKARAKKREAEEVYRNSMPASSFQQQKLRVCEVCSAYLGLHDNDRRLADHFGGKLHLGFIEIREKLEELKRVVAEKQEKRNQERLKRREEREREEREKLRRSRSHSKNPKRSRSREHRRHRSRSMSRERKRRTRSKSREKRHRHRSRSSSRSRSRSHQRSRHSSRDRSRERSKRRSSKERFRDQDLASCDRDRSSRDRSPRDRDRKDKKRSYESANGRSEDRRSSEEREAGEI

[3] = target: SW480 colon carcinoma cells lysate proteins (Homo sapiens, UniProt Q9UHV9); conditions: PreyGene PFDN2
SW480 colon carcinoma cells lysate proteins (Homo sapiens, UniProt Q9UHV9), sequence (Q9UHV9 whole entry): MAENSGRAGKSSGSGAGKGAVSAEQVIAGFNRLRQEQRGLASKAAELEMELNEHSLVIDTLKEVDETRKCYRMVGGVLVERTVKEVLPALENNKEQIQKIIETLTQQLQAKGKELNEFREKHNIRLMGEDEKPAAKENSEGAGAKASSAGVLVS

[4] = target: SW480 colon carcinoma cells lysate proteins (Homo sapiens, UniProt P30086); conditions: PreyGene PEBP1
SW480 colon carcinoma cells lysate proteins (Homo sapiens, UniProt P30086), sequence (P30086 whole entry): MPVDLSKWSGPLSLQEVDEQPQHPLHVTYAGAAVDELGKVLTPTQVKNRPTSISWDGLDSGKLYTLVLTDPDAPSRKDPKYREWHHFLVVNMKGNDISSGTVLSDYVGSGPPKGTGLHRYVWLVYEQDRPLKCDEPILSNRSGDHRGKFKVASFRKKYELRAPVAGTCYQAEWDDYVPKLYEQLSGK

[5] = target: T2, SW480 colon carcinoma cells lysate proteins (Homo sapiens, UniProt Q99497); conditions: PreyGene PARK7
T2 sequence (Q99497 1-189): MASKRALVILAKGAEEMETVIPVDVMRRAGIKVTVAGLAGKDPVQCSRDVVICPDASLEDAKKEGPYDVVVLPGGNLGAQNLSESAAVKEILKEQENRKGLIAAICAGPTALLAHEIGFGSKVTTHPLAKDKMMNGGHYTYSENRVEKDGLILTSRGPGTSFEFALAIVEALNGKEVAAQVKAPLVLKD

SW480 colon carcinoma cells lysate proteins (Homo sapiens, UniProt O75874), sequence (O75874 whole entry): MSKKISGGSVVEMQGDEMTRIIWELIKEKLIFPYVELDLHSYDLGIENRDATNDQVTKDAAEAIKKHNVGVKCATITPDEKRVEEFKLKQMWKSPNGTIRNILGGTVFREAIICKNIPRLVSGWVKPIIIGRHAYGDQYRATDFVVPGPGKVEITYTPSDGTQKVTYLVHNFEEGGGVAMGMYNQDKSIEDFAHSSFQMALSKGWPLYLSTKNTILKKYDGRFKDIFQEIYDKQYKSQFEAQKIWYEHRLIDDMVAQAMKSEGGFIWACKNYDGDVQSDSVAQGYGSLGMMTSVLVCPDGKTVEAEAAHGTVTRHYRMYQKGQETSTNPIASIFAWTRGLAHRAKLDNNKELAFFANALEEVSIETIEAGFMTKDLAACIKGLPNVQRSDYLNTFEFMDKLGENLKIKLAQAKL

For C[C@H](Oc1cc(-c2cnn(C3CCNCC3)c2)cnc1N)c1c(Cl)ccc(F)c1Cl [(5)-crizotinib], the AvgP [1] was 0.1991, the “SC.Exp. 1-1” value [1] was 3 and the “SC.Exp. 1-2” value [1] was 0. The “SC.Exp. 2-1” value [1] was 0, the “SC.Exp. 2-2” value [1] was 0 and the “Sum (SC.Exp.)” value [1] was 3. For the same molecule, the AvgP [2] was 0.3775, the “SC.Exp. 1-1” value [2] was 3 and the “SC.Exp. 1-2” value [2] was 3. The “SC.Exp. 2-1” value [2] was 0, the “SC.Exp. 2-2” value [2] was 0 and the “Sum (SC.Exp.)” value [2] was 6. The AvgP [3] was 0.3862, the “SC.Exp. 1-1” value [3] was 2 and the “SC.Exp. 1-2” value [3] was 2. The “SC.Exp. 2-1” value [3] was 0, the “SC.Exp. 2-2” value [3] was 0 and the “Sum (SC.Exp.)” value [3] was 4. For the same molecule, the AvgP [4] was 0.3266, the “SC.Exp. 1-1” value [4] was 3 and the “SC.Exp. 1-2” value [4] was 3. For the same molecule, the “SC.Exp. 2-1” value [4] was 0, the “SC.Exp. 2-2” value [4] was 0 and the “Sum (SC.Exp.)” value [4] was 6. The AvgP [5] was 0.4547, the “SC.Exp. 1-1” value [5] was 6 and the “SC.Exp. 1-2” value [5] was 7. The “SC.Exp. 2-1” value [5] was 0, the “SC.Exp. 2-2” value [5] was 0 and the “Sum (SC.Exp.)” value [5] was 13.
